Test results reported in patent publication US20150240295A1, “REACTIVE, LIPOPHILIC NUCLEOSIDE BUILDING BLOCKS FOR THE SYNTHESIS OF HYDROPHOBIC NUCLEIC ACIDS” (IONOVATION GMBH, priority 2012, published 2015).

What was measured:
IGR-OV1 = assay: Oncological test, cell growth against IGR-OV1; format: cell-based, human; conditions: FIGS. 12 and 13
Text: (§1) FIGS. 10 to 17 show the activity of compounds ESP—2.2, ESP—2.5 and ESP—31 according to the invention as well as the comparative examples ESP—2 and ESP—3 (Table 4) in relation to the concentration employed against various different cancer cells. […] The x-axis depicts the molar concentration of the respective compound on a logarithmical scale.

OVCAR-5 = assay: Oncological test, cell growth against OVCAR-5; format: cell-based, human; conditions: FIGS. 10 and 11
Text: as §1

HCT-15 cells = assay: Oncological test, cell growth against HCT-15; format: cell-based, human; conditions: for cell growth (inhibition / cytotoxic effect): FIGS. 14 and 15
Text: as §1

786-0 cells = assay: Oncological test, cell growth against 786-0; format: cell-based; conditions: FIGS. 16 and 17
Text: as §1

various cancer cells = assay: Oncological tests, summary of FIGS. 10 to 17; format: cell-based; conditions: ovarian, colon and kidney cancer cells
Text: as §1

Row | Structure (SMILES) | melting point [°C] | cell growth (inhibition / cytotoxic effect) (IGR-OV1) | cell growth (inhibition / cytotoxic effect) (OVCAR-5) | cell growth (inhibition / cytotoxic effect) (HCT-15 cells) | cell growth (inhibition / cytotoxic effect) (786-0 cells) | other results
1 | CCCCCCCCCCCCCC1(CCCCCCCCCCCCC)O[C@@H]2[C@H](O1)[C@@H](CO)O[C@H]2n1ccc(=O)[nH]c1=O [Compound 25c, 1-((3aR,4R,6R,6aR)-6-(hydroxymethyl)-2,2-ditridecyltetrahydrofuro[3,4-d][1,3]dioxol-4-yl)pyrimidin-2,4(1H,3H)-dione] | 90.1 |  |  |  |  | 
2 | O=c1cnn([C@@H]2O[C@H](CO)[C@@H](O)[C@H]2O)c(=O)[nH]1 [ESP—2, 6-azauridine, reference compound] |  | slight inhibition | no activity | slight inhibition of the growth of the cells |  | 
3 | CCCCCCCCCC1(CCCCCCCCC)OC2[C@@H](CO)O[C@@H](n3ccc(=O)[nH]c3=O)[C@H]2O1 (stereo partly drawn) [ESP—31] |  | vast improvement with respect to the cytotoxic activity | cytotoxicity | high cytotoxic activity | cytotoxic effect | 
4 | COc1ccc(C(OC[C@H]2O[C@@H](n3cnc4c(=O)n(C/C=C(\C)CC/C=C(\C)CCC=C(C)C)cnc43)C[C@@H]2O)(c2ccccc2)c2ccc(OC)cc2)cc1 [Compound 4b, 9-((2R,4S,5R)-5-((Bis(4-methoxyphenyl)(phenyl)methoxy)-methyl)-4-hydroxytetrahydrofuran-2-yl)-1-((2E,6E)-3,7,11-trimethyldodeca-2,6,10-trienyl)-1H-purin-6(9H)-on] | 68 |  |  |  |  | 
5 | CCOC(=O)CC[C@]1(C)OC2[C@@H](CO)O[C@@H](n3ncc(=O)n(C/C=C(\C)CCC=C(C)CCC=C(C)C)c3=O)[C@H]2O1 (stereo partly drawn) [ESP—2.5] |  | improved inhibition effect | high cytotoxicity | increased activity | high cytotoxic effect | activity / cytotoxicity against various cancer cells (various cancer cells): particular high cytotoxicity; death of the cells (HCT-15 cells; high dosage): over 50%
6 | CCOC(=O)CC[C@@]1(C)OC2C(O1)[C@@H](COC(c1ccccc1)(c1ccccc1)c1ccc(OC)cc1)O[C@H]2n1ncc(=O)[nH]c1=O (stereo partly drawn) [ESP—2.2] |  | activity of the compound could be increased | inhibition of cell growth | increased activity |  | 
7 | COc1ccc(C(OC[C@H]2O[C@@H](n3cnc4c(=O)n(C/C=C(\C)CCC=C(C)C)cnc43)C[C@@H]2O)(c2ccccc2)c2ccc(OC)cc2)cc1 [Compound 4a, 9-((2R,4S,5R)-5-((Bis(4-methoxyphenyl)(phenyl)methoxy)-methyl)-4-hydroxytetrahydrofuran-2-yl)-1-((E)-3,7-di-methylocta-2,6-dienyl)-1H-purin-6(9H)-one] | 74 |  |  |  |  | 
8 | O=c1ccn([C@@H]2O[C@H](CO)[C@@H](O)[C@H]2O)c(=O)[nH]1 [ESP—3, uridine, reference compound] |  | did not even cause a growth inhibition | no activity |  | did not show any activity at all | 
9 | CCCCCCCCCCCCCCCCCC1(CCCCCCCCCCCCCCCCC)OC2C(CO)OC(n3ccc(=O)[nH]c3=O)C2O1 (stereo not drawn) [Compound 25e, 1-(2,2-Diheptadecyl-6-hydroxymethyl-tetrahydro-furo[3,4-d][1,3]dioxol-4-yl)-1H-pyrimidin-2,4-dione] | 89.7 |  |  |  |  | 
10 | CCCCCCCCCCCCCCCC1(CCCCCCCCCCCCCCC)OC2C(CO)OC(n3ccc(=O)[nH]c3=O)C2O1 (stereo not drawn) [Compound 25d, 1-(6-Hydroxymethyl-2,2-dipentadecyl-tetrahydro-furo[3,4-d][1,3]dioxol-4-yl)-1H-pyrimidin-2,4-dione] | 93 |  |  |  |  | 
